Assay: mn = molality of the nth substance listed, in mol/kg
Settings: Liquid, Vibrating tube method

[Br-].[Br-].[Zn+2] [zinc bromide] + CCO
Settings	mass density [kg/m3]
333.15 K, 25621 kPa, m1 = 0.3043	825.37
333.15 K, 29810 kPa, m1 = 0.4384	848.46
333.15 K, 29875 kPa, m1 = 1.49	995.4
333.15 K, 29941 kPa, m1 = 0.05681	791.79
333.15 K, 34256 kPa, m1 = 0.3043	832.31
333.15 K, 34920 kPa, m1 = 0.4384	852.42
333.15 K, 34965 kPa, m1 = 1.49	999.47
333.15 K, 39957 kPa, m1 = 1.49	1003.26
333.16 K, 1604 kPa, m1 = 1.887	1020.71
333.16 K, 5024 kPa, m1 = 0.3043	806.15
333.16 K, 10325 kPa, m1 = 0.3043	811.46
333.16 K, 14730 kPa, m1 = 0.4384	835.35
333.16 K, 14913 kPa, m1 = 0.9305	905.9
333.16 K, 15014 kPa, m1 = 0.05681	778.76
333.16 K, 29941 kPa, m1 = 0.3043	828.93
333.16 K, 30014 kPa, m1 = 1.887	1047.6
333.16 K, 35068 kPa, m1 = 0.05681	795.79
333.16 K, 39745 kPa, m1 = 0.3043	836.38
333.16 K, 39787 kPa, m1 = 0.1696	816.47
333.16 K, 39824 kPa, m1 = 0.4384	855.99
333.17 K, 1074 kPa, m1 = 0.4384	821.64
333.17 K, 25080 kPa, m1 = 0.9305	915
333.17 K, 39803 kPa, m1 = 0.9305	926.52
333.17 K, 39921 kPa, m1 = 0.05681	799.36
333.18 K, 9721 kPa, m1 = 0.1696	791.08
333.18 K, 14944 kPa, m1 = 0.1696	796.06
333.18 K, 19908 kPa, m1 = 0.1696	800.57
333.18 K, 19971 kPa, m1 = 1.887	1038.86
333.18 K, 25143 kPa, m1 = 1.887	1043.47
333.18 K, 29806 kPa, m1 = 0.1696	808.92
333.18 K, 34946 kPa, m1 = 0.1696	812.92
333.2 K, 24905 kPa, m1 = 0.1696	804.89
353.12 K, 1215 kPa, m1 = 0.1696	762.79
353.12 K, 4885 kPa, m1 = 0.9305	876.1
353.12 K, 24736 kPa, m1 = 0.4384	827.02
353.12 K, 29724 kPa, m1 = 0.4384	831.58
353.12 K, 34818 kPa, m1 = 0.1696	796.87
353.12 K, 40086 kPa, m1 = 0.9305	910.04
353.13 K, 19976 kPa, m1 = 0.4384	822.41
353.13 K, 29922 kPa, m1 = 1.887	1029.35
353.13 K, 34919 kPa, m1 = 0.9305	905.88
353.13 K, 35245 kPa, m1 = 0.05681	780.23
353.14 K, 5032 kPa, m1 = 0.3043	786.89
353.14 K, 5065 kPa, m1 = 0.05681	750.01
353.14 K, 9866 kPa, m1 = 0.1696	772.71
353.14 K, 9945 kPa, m1 = 1.887	1009.26
353.14 K, 19983 kPa, m1 = 0.1696	783.31
353.14 K, 25841 kPa, m1 = 0.3043	808.62
353.14 K, 34738 kPa, m1 = 1.887	1033.52
353.14 K, 39852 kPa, m1 = 0.3043	820.61
353.15 K, 1306 kPa, m1 = 0.9305	871.91
353.15 K, 1451 kPa, m1 = 0.05681	745.7
353.15 K, 1574 kPa, m1 = 0.3043	782.83
353.15 K, 1687 kPa, m1 = 1.49	948.01
353.15 K, 5032 kPa, m1 = 1.49	951.99
353.15 K, 10024 kPa, m1 = 0.05681	755.67
353.15 K, 10024 kPa, m1 = 1.49	957.68
353.15 K, 10145 kPa, m1 = 0.3043	792.67
353.15 K, 15624 kPa, m1 = 1.49	963.72
353.15 K, 19924 kPa, m1 = 0.05681	766.16
353.15 K, 19957 kPa, m1 = 1.49	968.14
353.15 K, 20412 kPa, m1 = 0.3043	803.4
353.15 K, 25214 kPa, m1 = 1.49	973.21
353.15 K, 29658 kPa, m1 = 1.49	977.25
353.15 K, 29952 kPa, m1 = 0.3043	812.36
353.15 K, 30014 kPa, m1 = 0.05681	775.72
353.15 K, 34984 kPa, m1 = 1.49	981.78
353.15 K, 39958 kPa, m1 = 1.49	985.72
353.15 K, 39984 kPa, m1 = 0.05681	784.05
353.16 K, 4839 kPa, m1 = 0.1696	767.04
353.16 K, 9987 kPa, m1 = 0.9305	881.84
353.16 K, 15412 kPa, m1 = 0.05681	761.52
353.16 K, 15624 kPa, m1 = 0.3043	798.54
353.16 K, 24888 kPa, m1 = 0.1696	788.05
353.16 K, 34658 kPa, m1 = 0.3043	816.41
353.16 K, 34826 kPa, m1 = 0.4384	835.96
353.16 K, 39714 kPa, m1 = 1.887	1037.55
353.17 K, 4861 kPa, m1 = 0.4384	806.08
353.17 K, 14799 kPa, m1 = 0.1696	778.02
353.17 K, 14872 kPa, m1 = 1.887	1014.63
353.17 K, 19935 kPa, m1 = 0.9305	892.23
353.17 K, 24932 kPa, m1 = 0.05681	771.05
353.17 K, 29746 kPa, m1 = 0.1696	792.5
353.17 K, 39702 kPa, m1 = 0.1696	800.82
353.18 K, 9743 kPa, m1 = 0.4384	811.63
353.18 K, 14964 kPa, m1 = 0.9305	887.17
353.18 K, 29738 kPa, m1 = 0.9305	901.43
353.19 K, 1518 kPa, m1 = 0.4384	802.12
353.19 K, 19828 kPa, m1 = 1.887	1019.76
353.19 K, 24834 kPa, m1 = 0.9305	896.96
353.19 K, 39796 kPa, m1 = 0.4384	839.94
353.2 K, 1878 kPa, m1 = 1.887	999.87
353.2 K, 4878 kPa, m1 = 1.887	1003.45
353.2 K, 24815 kPa, m1 = 1.887	1024.64
353.21 K, 14513 kPa, m1 = 0.4384	816.8
373.12 K, 1190 kPa, m1 = 0.4384	780.46
373.12 K, 1697 kPa, m1 = 1.887	977.46
373.12 K, 5014 kPa, m1 = 1.887	981.85
373.12 K, 9878 kPa, m1 = 0.4384	791.75
373.12 K, 29863 kPa, m1 = 0.1696	775.41
373.12 K, 29926 kPa, m1 = 1.887	1010.28
373.12 K, 29956 kPa, m1 = 0.4384	814.15
373.13 K, 4952 kPa, m1 = 0.05681	729.35
373.13 K, 4965 kPa, m1 = 0.1696	746.64
373.13 K, 9897 kPa, m1 = 1.887	988.07
373.13 K, 14946 kPa, m1 = 1.887	994.16
373.13 K, 20065 kPa, m1 = 1.887	1000
373.13 K, 24795 kPa, m1 = 0.4384	808.88
373.13 K, 24847 kPa, m1 = 0.1696	770.29
373.14 K, 1612 kPa, m1 = 0.1696	742.13
